This series is described as follows: AUC (0 to last) in C57 mouse at 10 mg/kg, po. The format is ADME, organism-based. Details: time 0 - last, dose 10 mg/kg, route oral. The settings on record: plasma.
`CCS(=O)(=O)c1cccc(Oc2cccc(-n3c(C)nc4c(Cl)cccc43)c2)c1` had an AUC(0-t) of 1780 ng·h/mL.

`Cc1nc2c(C(F)(F)F)cccc2n1-c1cccc(Oc2cccc(S(=O)(=O)C(C)C)c2)c1`: the AUC(0-t) was 1290 ng·h/mL.

In the case of `Cc1nc2c(C(F)(F)F)cccc2n1-c1cccc(Oc2cccc(S(C)(=O)=O)c2)c1`, the area under the curve AUC(0-t) was 12900 ng·h/mL.

As for `Cc1nc2c(Cl)cccc2n1-c1cccc(Oc2cccc(S(C)(=O)=O)c2)c1`, the area under the curve AUC(0-t) turned out to be 1500 ng·h/mL.

For `CS(=O)(=O)c1cccc(Oc2cccc(-n3cnc4c(C(F)(F)F)cccc43)c2)c1`, the exposure AUC(0-t) amounted to 12100 ng·h/mL.

In turn, `CCS(=O)(=O)c1cccc(Oc2cccc(-n3c(C)nc4c(C(F)(F)F)cccc43)c2)c1` came in with an area under the curve AUC(0-t) of 2940 ng·h/mL.

Take `CCc1nc2c(C(F)(F)F)cccc2n1-c1cccc(Oc2cccc(S(C)(=O)=O)c2)c1`: the area under the curve AUC(0-t) came out at 1780 ng·h/mL.

For `CS(=O)(=O)c1cccc(Oc2cccc(-n3c(C(F)(F)F)nc4c(C(F)(F)F)cccc43)c2)c1`, the area under the curve AUC(0-t) was 14300 ng·h/mL.

For orientation: AUC(0-t) means exposure summed from dosing to a finite time, without extrapolation to infinity. High values mean high exposure, low ones low exposure.

These data come from ChEMBL document CHEMBL1153239, “1-(3-Aryloxyaryl)benzimidazole sulfones are liver X receptor agonists” (Bioorg Med Chem Lett, 2010).
